The record followed here is ChEMBL document CHEMBL1201862, “PubChem BioAssay data set” (2004).

The source made the active and inactive calls.

Test [1] is described as follows: Luminescence Cell-Based Dose Confirmation HTS to Identify Inhibitors of Polyadenylation. Format: functional.
A short description of test [2]: NIH3T3 cell viability loss – ATP luminescence, mouse fibroblasts, counter-screen, dose response (AID 2010).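 Also: cells exposed to compound for about 90 hours before reading.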 Format: functional, cell-based. (In general: Counterscreens check selectivity or assay interference.)
Test [3] is described as follows: Trypanosoma cruzi growth suppression in host cells – NIH3T3 host cells, beta-gal luminescence, confirmation (AID 2044).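 Also: intracellular parasites grown in NIH/3T3 mouse fibroblasts as host cells; luminescent beta-galactosidase reporter signal from transgenic T. cruzi replicating inside host cells; inhibitors lower the luminescence signal.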 Format: functional, cell-based.
Test [4] deals with INS1. Briefly: INS-1E survival protection against cytokine death – cell-based, luminescence, retest, dose response (AID 449756).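 Also: cell death triggered by IL-1 beta plus TNF-alpha plus IFN-gamma mixture; protective hits raise ATP signal compared with cytokine alone wells.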 It counts as functional. As to conditions: Rattus norvegicus.
The nature of test [5]: HIV-1 AD8 envelope cell-cell fusion blockers – cherry-pick, dose response (AID 652062).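 Also: luciferase signal from cell-cell fusion driven by HIV-1 clade B AD8 Env; potency is for inhibitors of fusion seen as a drop in luminescence.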 Format: functional, cell-based.
A short description of test [6]: blockers of HIV-1 ZM109 envelope-driven cell-cell fusion – HeLa effector, CEM target cells, luciferase, cherry-pick, dose response (AID 652058).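 Also: luciferase signal from HIV-1 Env mediated cell-cell fusion of effector and target cells.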 It counts as functional, cell-based.
The target of test [7] is T1, COUP transcription factor 2 (Homo sapiens, UniProt P24468).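 Also: HEK293 cells transiently cotransfected with COUP-TFII expression vector and reporter; luciferase reporter luminescence driven by COUP-TFII from the pX2-168 reporter plasmid.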
T1 sequence (P24468 whole entry): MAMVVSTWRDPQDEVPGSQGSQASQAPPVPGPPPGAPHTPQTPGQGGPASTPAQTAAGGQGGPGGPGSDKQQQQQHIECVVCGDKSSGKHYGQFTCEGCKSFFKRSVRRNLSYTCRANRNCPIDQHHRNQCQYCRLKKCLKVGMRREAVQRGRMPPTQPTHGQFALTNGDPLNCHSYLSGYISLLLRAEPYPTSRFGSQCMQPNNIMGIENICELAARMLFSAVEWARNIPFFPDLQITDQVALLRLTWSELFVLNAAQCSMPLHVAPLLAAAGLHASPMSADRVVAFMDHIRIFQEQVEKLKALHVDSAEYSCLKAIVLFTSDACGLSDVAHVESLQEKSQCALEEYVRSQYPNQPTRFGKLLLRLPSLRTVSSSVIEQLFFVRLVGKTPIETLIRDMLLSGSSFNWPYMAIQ
Briefly: Luminescence-based cell-based high throughput dose response assay to identify inhibitors of COUP-TFII (NR2F2). Format: functional.

Test [8] can be described thus: off-target signal loss in HeLa-CEM21 co-culture – HeLa F-luc CTL cells, cherry-picked, counter-screen for HIV-1 Env fusion inhibitor project, dose response (AID 652040).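 Also: potency for signal decrease marking cytotoxic or nonspecific inhibition.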 It counts as functional, cell-based.
The nature of test [9]: Luminescence-based dose response cell-based high throughput screening assay for cytotoxic compounds using the IEC-6 intestinal epithelial cell line. [Related pubchem assays: 1858 (Summary AID.), 1825 (Counterscreen.), 1907 (Confirmation screen.)]. It counts as functional.
Test [10] is described as follows: blockers of HIV-1 envelope-mediated cell-cell fusion – cherry-pick, dose response (AID 652057). It counts as functional, cell-based.
Test [11] can be described thus: viability loss in CEM21 cells – cell-based, CellTiter-Glo luminescence, cherry-picked, cytotoxicity control for viral fusion inhibitor project, dose response (AID 652042).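 Also: potency for signal decrease meaning cytotoxicity.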 Format: functional. For orientation: Cellular ATP, detected with luciferase, serves as a proxy for viable cell number.
Test [12] is described as follows: M. tuberculosis H37Rv growth inhibitors, H37Rv strain (AID 1626). It counts as functional.
The target of test [13] is Epstein-Barr nuclear antigen 1 (Epstein-Barr virus (strain B95-8) (HHV-4) (Human herpesvirus 4), UniProt P03211). As to the kind of experiment: inhibition of EBV nuclear antigen 1 DNA binding – biochemical, fluorescence polarization, 1536-well, dose response (AID 2381).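 Also: fluorescence polarization of a Cy5 DNA probe bound by EBNA-1 protein.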 The arrangement: species or system human gammaherpesvirus 4. For orientation: Polarisation of emitted light reports the rotation of a fluorescent probe.
Epstein-Barr nuclear antigen 1, sequence (P03211 whole entry): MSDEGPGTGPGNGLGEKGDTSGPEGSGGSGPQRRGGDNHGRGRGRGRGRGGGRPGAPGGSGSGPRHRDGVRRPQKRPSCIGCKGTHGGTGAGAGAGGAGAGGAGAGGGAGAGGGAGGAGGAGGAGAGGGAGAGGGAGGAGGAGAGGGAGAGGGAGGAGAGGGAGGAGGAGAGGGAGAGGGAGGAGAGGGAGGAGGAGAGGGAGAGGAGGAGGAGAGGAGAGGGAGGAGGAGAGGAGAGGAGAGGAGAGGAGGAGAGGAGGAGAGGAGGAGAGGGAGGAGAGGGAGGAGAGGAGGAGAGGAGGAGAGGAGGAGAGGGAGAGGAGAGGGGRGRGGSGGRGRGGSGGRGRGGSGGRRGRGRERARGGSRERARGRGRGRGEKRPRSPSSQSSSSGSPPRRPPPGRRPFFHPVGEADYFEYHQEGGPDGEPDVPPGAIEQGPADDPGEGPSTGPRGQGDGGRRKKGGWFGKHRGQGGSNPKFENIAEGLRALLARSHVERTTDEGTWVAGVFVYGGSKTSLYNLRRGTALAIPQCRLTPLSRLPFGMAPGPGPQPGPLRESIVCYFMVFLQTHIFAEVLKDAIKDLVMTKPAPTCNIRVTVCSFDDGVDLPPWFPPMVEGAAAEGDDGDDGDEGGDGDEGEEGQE

The target in test [14] is Lytic switch protein BZLF1 (Epstein-Barr virus (strain B95-8) (HHV-4) (Human herpesvirus 4), UniProt P03206). Briefly: inhibition of BZLF1 ZTA DNA binding – biochemical, fluorescence polarization, Epstein-Barr virus, 1536-well, counter-screen for EBNA-1 inhibitor project, dose response (AID 2377).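 Also: fluorescence polarization of Cy5-labelled ZRE DNA probe bound by purified Zta.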 The arrangement: species or system human gammaherpesvirus 4.
Lytic switch protein BZLF1, sequence (P03206 whole entry): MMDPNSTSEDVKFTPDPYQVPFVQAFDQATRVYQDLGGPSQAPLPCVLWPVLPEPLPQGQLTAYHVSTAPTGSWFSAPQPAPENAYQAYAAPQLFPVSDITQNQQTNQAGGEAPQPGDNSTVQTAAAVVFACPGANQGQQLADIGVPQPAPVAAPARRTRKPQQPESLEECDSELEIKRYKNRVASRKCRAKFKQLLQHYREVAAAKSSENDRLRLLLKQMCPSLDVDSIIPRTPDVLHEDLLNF

In the case of `Cc1nc2ccc(NC(=O)Cc3ccc4c(c3)OCCO4)cc2s1`, in test [1], the EC50 was > 120000 nM (not active).
As to `CC(C)(C)c1ccc(C2CC2C(=O)N/N=C\c2ccc[nH]2)cc1` (centres undefined), the figures for the EC50 in test [2] and in [3] were 3250 nM (active) and 389 nM (active), respectively. Also, the AC50 in test [4] is 854 nM (active); in [5], 1970 nM (active); in test [6] it was 1500 nM (active); in [8], 2750 nM (active); in test [10], 3520 nM (active); in [11], 4530 nM (active). Also, the half-inhibitory concentration (IC50) in [7] is 2660 nM (active); in test [9], 1440 nM (active).
`COc1ccc(N2CCN(c3nc(-c4cccs4)nc4ccccc34)CC2)cc1`: in test [12], the half-maximal inhibitory concentration (IC50) was > 100000 nM (active).
On to `Cc1cc(NC(=O)COC(=O)c2oc3c(ccc4ccccc43)c2C)no1`, for which the IC50 in [13] was 9170 nM (active); in [14], > 111000 nM (not active).

Usually EC50 stands for the concentration that produces a half-maximal response. Usually AC50 stands for the concentration giving half of the maximal activity seen. For orientation: IC50 means the concentration needed to halve the response being measured.
